For series [1], the target named is T1, S. aureus ATCC 29213 FabI (Staphylococcus aureus, UniProt Q6GI75).
T1 sequence (Q6GI75 1-256): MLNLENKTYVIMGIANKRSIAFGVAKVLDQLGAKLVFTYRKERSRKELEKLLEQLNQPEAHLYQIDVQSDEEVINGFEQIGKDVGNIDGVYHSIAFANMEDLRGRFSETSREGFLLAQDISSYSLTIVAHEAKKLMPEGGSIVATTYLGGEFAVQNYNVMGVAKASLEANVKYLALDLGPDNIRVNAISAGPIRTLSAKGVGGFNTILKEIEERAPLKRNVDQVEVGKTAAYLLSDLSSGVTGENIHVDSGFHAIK
The series is described as follows: Staphylococcus aureus FabI enzyme inhibition assay. The class given is biochemical. To be noted: NADH consumption, 30 minutes, read-out: FabI (300.235) IC50 (converted). An outline of the steps:
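Incubation ran 30 min at room temperature, then was stopped by a pH shift with 200 mM Tris pH 9.0. NADH consumption was read as absorbance at 340. Percent inhibition was taken against no-compound and no-enzyme controls, and IC50 (µg/ml) came from a least-squares fitted curve.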

The subject of series [2] is Staphylococcus aureus ATCC 29213. The series is described as follows: Antibacterial susceptibility testing, IC90 determination (broth microdilution, resazurin). The format is cell-based. The note with it: Staphylococcus aureus, ATCC29213, S. aureus ATCC 29213; 90% inhibitory concentration for bacterial growth; read-out: STA (361.159) IC90. In short, it runs like this:
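Broth microdilution in Mueller-Hinton broth, 5×10^5 CFU/ml inoculum, two-fold compound dilutions typically 63–0.49 μM, 1.25% DMSO, 10% human serum where stated, 35 °C for 16–20 h. Growth read fluorometrically after resazurin addition (ex 540/em 590 nm). IC90 (μg/ml) is the concentration giving 90% growth inhibition.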

A further series deals with S. aureus. Description: Antibacterial susceptibility testing, IC90 determination with 10% human serum. The format is cell-based, Staphylococcus aureus. The note with it: Staphylococcus aureus, S. aureus with human serum at final concentration of 10%; read-out: STA + 10% HS (361.169) IC90. An outline of the steps:
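Broth microdilution in Mueller Hinton broth with 10% human serum (final) and 5×10^5 CFU/ml S. aureus. Compounds tested typically 63–0.49 μM, with 1.25% DMSO final, and incubated 16–20 h at 35 °C. Growth read by resazurin fluorescence (ex 540/em 590 nm); IC90 in μg/ml.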

The test system of the next series is Human HelaM cells. Description: Cytotoxicity MTT assay. The format is cell-based. The note with it: 72 hours. An outline of the steps:
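HelaM cells exposed to serial dilutions (typically 25–0.8 μM, 0.5% DMSO final) for 72 h at 37 °C, 5% CO2. MTT formazan dissolved in 2-propanol, absorbance 540 nm minus 690 nm; CC50 is concentration giving 50% loss of viability.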

In brackets after ≈: the same amount, converted by molar mass.

Regarding `CN1CC(=O)Nc2ncc(/C=C/C(=O)N3CCC=C(c4ccccc4)CC3)cc2C1` [compound 38], the melting point was 198.79 °C. For the same compound, the IC50 in series [1] is 820 nM. In addition, the concentration for an effect of 90% (IC90) in series [2] amounted to 0.5 µg/mL (≈ 1.24 µM). In the series with S. aureus, the IC90 turned out to be 0.46 µg/mL. For the same compound, in the series with Human HelaM cells, the “HELAM (222.125) CC50” value was over 10.11 µg/mL.
